This is an account of results in publication PMC11302339, “A series of pyrimidine-based antifungals with anti-mold activity disrupt ER function in Aspergillus fumigatus” (Microbiology Spectrum, 2024).

SMILES strings stand for the structures. Like-named read-outs stand apart in the source and are kept apart here.

Series [1] deals with A. fumigatus collagenase secretion. The series is described as follows: Detection of secreted collagenase by azocoll. Format: cell-based, Aspergillus fumigatus. Here is the method: 1 × 10^6 CEA10 conidia/mL were cultured in 25 mL liquid GMM for 18 hours, then mycelia were washed with sterile ddH2O and transferred to 10% FBS-MM and treated with DMSO or the indicated concentration of drugs. Cultures were incubated at 37°C, 250 rpm, for an additional 24 hours, then the supernatant and biomass were collected. One milliliter of supernatant was spun at top speed for 5 min. Azocoll of <50 mesh (Sigma, Cat # 194932) was washed in buffer (50 mM Tris, pH 7.5, 1 mM NaCl, and 0.01% sodium azide) then resuspended to 5 mg/mL. Fifteen microliters of culture supernatant was added to the 2 mL azocoll solution and incubated at 37°C with shaking at 300 rpm for 3 hours in the dark. Reactions were spun at maximum speed for 3 min; 200 µL of supernatant was then transferred to a 96-well plate; and Abs 520 was measured. Biomass was lyophilized, and absorbance readings were normalized to milligram tissue. Data represent the mean and SEM of biological triplicates with technical duplicates except for compounds 5 and 7, which are biological duplicates due to the limited availability of the drug and the required culture size for this assay.

Series [2] is described as follows: Pharmacokinetics in mice (serum/plasma and brain). The following applies: single 10 mg/kg intraperitoneal; for Cmax / half-life: female, CD-1, mouse, ip, CD1 mice; for half-life: read-out: half-life (T1/2). Format: in vivo, CD-1 mice. As to the method: Twenty-one female CD-1 mice were dosed intraperitoneally with 10 mg/kg 1. Whole blood was collected in a syringe coated with ACD. Plasma was processed from whole blood by centrifugation at 10,000 rpm for 10 min. Brain tissue was harvested and gently washed with 1× PBS to remove residual circulating blood. The tissue was weighed and snap frozen in liquid nitrogen.
For the standards and quality controls, 98.0 and 98.8 µL of blank vendor plasma were added to a microfuge tube and spiked with 2.0 and 1.2 µL of initial standard. Standards, quality controls, and samples of 100 µL were then precipitated with 200 µL of methanol containing 0.15% formic acid and […]. The samples were vortexed 15 s, incubated at room temperature for 10 min, and centrifuged at 13,200 rpm twice in a standard microcentrifuge. The supernatant was then analyzed by LC-MS/MS. The vendor supplied the plasma used in standards and quality controls (QCs; lot # MSE460968, ACD anti-coagulant; Bioreclamation, LLC).
Brain tissues were homogenized in 3× volume of PBS. For the standards and quality control samples, 98.0 and 98.8 µL of pooled blank brain were added to a microfuge tube and spiked with 2.0 or 1.2 µL of initial standard. Standards, quality control samples of 100 µL, were then precipitated with 200 µL of methanol containing 0.15% formic acid and 12.5 ng/mL IS (final concentrations). The samples were vortexed for 15 s, incubated at room temperature for 10 min, and centrifuged at 13,200 rpm twice in a standard microcentrifuge. The supernatant was then analyzed by LC-MS/MS.

In series [3] the test system is A. fumigatus CEA10 hyphae. Put plainly: Propidium iodide viability staining of treated hyphae. Format: cell-based, Aspergillus fumigatus. As to the method:
For PI staining of 1-treated hyphae, 0.5 × 10^3conidia/mL in 100 µL RPMI + MOPS were inoculated into chambers of an eight-well chamber slide and incubated at 37°C for 14 hours. 100 µL of media containing a 2× concentration of 1 or an equivalent amount of DMSO was added to each chamber, and slides were incubated for an additional 24 hours. Media were removed from chambers, replaced with PBS + 40 µM propidium iodide (Invitrogen, Cat # P3566), then slides were incubated at room temperature for 20 min in the dark. Images were acquired on a Nikon epifluorescence microscope with a Nikon DS-Fi1 camera and Nikon Elements image acquisition and analysis software. Images were processed equally with linear brightness and contrast adjustments in Photoshop, only to increase ease of viewing. Representative images of two independent experiments are shown with two biological replicates each.

Series [4] is described as follows: Mouse microsome stability. Format: in vitro ADME. Particulars: mouse microsomes, 0.5 mg/mL microsomes, NADPH cofactors, 37°C. As to the method:
1 (2 mM in DMSO) was incubated at 37°C with 0.5 mg/mL mouse microsomes (lot # 2110330) fraction and Phase I (NADPH regenerating system) cofactors for 0–120 min at a final concentration of 2 µM. Reactions were quenched with 0.5 mL (1:1) of methanol containing formic acid (FA) 0.2% and 100 ng/mL n-benzylbenzamide internal standard (IS; 0.1% FA and 50ng/mL IS final). Samples were vortexed for 30 s, incubated at room temperature for 10 min, and spun for 5 min at 2,200 rpm in a tabletop centrifuge. Supernatant (~0.9 mL) was then transferred to an Eppendorf tube and spun in a 4°C microfuge for 5 min at 13,200 rpm. Supernatant was transferred to an high-performance liquid chromatography plate with seal and samples then analyzed by a 4500 LC-MS/MS.

The Cmax is the maximum level reached in the sampled fluid or tissue.

Regarding `OC1CC(c2cc(N3CCC(CCc4ccccc4)CC3)ncn2)C1` (centres unmarked) [compound 1], the collagenase secretion entry in series [1] (1 µg/mL, 24 hours in 10% FBS-MM) is given as “did not change collagenase secretion”; in series [1] (2, 4, 8 and 16 µg/mL, 24 hours in 10% FBS-MM, dose-dependent) it was “significantly inhibited”; in series [1] (treated with 1/2 MIC of each compound), “inhibition of collagenase secretion was similar”. Also, the “time of Cmax post-administration” value in series [2] (brain tissue) and in series [2] (serum) was 10 min each time. In addition, the Cmax was found to be 2000 ng/g in series [2] (brain tissue) and 491 ng/mL in series [2] (serum/plasma). Besides, the half-life was found to be 295 min in series [2] (brain tissue) and 23 min in series [2] (serum/plasma). Besides, the blood-brain barrier penetration result in series [2] (mice) is on record as “penetrated the blood-brain barrier”. Also, the “propidium iodide staining of hyphae” value in series [3] (8 µg/mL for 24 hours after 14 hours germination) is given as “did not show increased staining relative to vehicle-treated controls”; in series [3] (32 µg/mL for 24 hours after 14 hours germination), “stained brightly”. Further, the “type of activity against biofilms” value in series [3] (at concentrations 2× the MIC) is given as “fungicidal”. Also, the half-life at 2 µM in series [4] stood at 75 min.
